Measured values reported in patent US20110287547A1, “NUCLEIC ACID DELIVERY COMPOSITIONS AND METHODS” (priority 2008, published 2011).
Converted amounts (≈) assume the structure as drawn. Read-outs that look alike come from different tables or passages of the source. Where a SMILES comes first, the peptide text is derived from it.

How the values were obtained:
Balb/C mice = details: 200 μL tail vein, Balb/C mouse
Procedure: Assessment of toxicity in vivo. Stock solutions of 0.3 M CaCl2, 10% Glucose, and 174 mg/ml dTAT were prepared. Non-silencing control siRNA (Dharmacon; Sense: […]tt; SEQ ID NO 16, Antisense: […]tt; SEQ ID NO 17) was dissolved in nuclease-free water (61.5 nM). The dTAT/siRNA complexes were prepared in 1.5 ml microcentrifuge tubes by mixing stock solutions (at concentrations indicated above). Formulation 1 used 15 μL of dTAT, 10 μL siRNA, 25 μL Glucose, and 5 μl CaCl2. Each ingredient was added to the previous component(s) and mixed by pipetting between each addition. Four of these formulas were individually prepared and kept at 4° C. for 20 minutes, then kept at room temperature for 5 minutes prior to injection. Remaining formulations (2-10) were prepared by a serial 1:2 dilution of stock siRNA solution and stock dTAT solution following the same experimental protocol as described above. The dTAT/siRNA complexes (volume=260 μl) were prepared for each individual animal and each 0.2 mL injection volume contained approximately the following amounts of dTAT peptide (mg/ml): 40, 20, 10, 5, 2.5, 1.25, 0.64, 0.32, 0.16, 0. Each formulation was administered via 200 μL injection into the tail vein of 12 week old male Balb/C mice (10 animals total).
In vivo dose escalating toxicity study. […] A dose escalating study was conducted in an effort to establish a lethal dose (LD50) for the dTAT peptide. For these studies, only a minimal amount of siRNA was included so that animal responses would be indicative of the toxicity of dTAT. Animals were administered the formulations via tail vein injection (200 μL) at doses up to 1,000 mg/kg of dTAT (Table 5).

[1] = Assessment of cytotoxicity (MTS Assay), Example 4; assay type: cell-based, human; details: human, A549-luc-C8 cells, up to 5 mg/mL
Procedure: (§1) Cell culture. Culturing of human epithelial lung cell line A549-luc-C8, stably expressing luciferase, was performed according to the protocol provided by Caliper LifeSciences. A549-luc-C8 cells were grown in RPMI-1640 supplemented with 10% v/v heat inactivated FBS and 1% v/v Penicillin/streptomycin at 37° C. in a humidified air atmosphere containing 5% CO2.
(§2) Assessment of cytotoxicity (MTS Assay). […] A549-luc-C8 cells were grown as described in the transfection experiments. Cells were treated with the TAT, dTAT or PEI for approximately 24 hours. […] The cells were incubated for 3 hours at 37° C. in the 5% CO2 incubator. The absorbance of each well was then measured at 490 nm using a microtiter plate reader (SpectraMax, M25, Molecular Devices Corp., CA) to determine cell viability.

A549-luc-C8 cells = experiment: Assessment of cytotoxicity (MTS Assay), Example 4; assay type: cell-based, human; details: 24 hours, up to 5 mg/mL
Procedure: as §1, §2

A549 cells [2] = experiment: Cytotoxicity Assay (MTS Assay), Example 1 and CPPs; assay type: cell-based, human; details: A549 cells, MTS
Procedure: (§3) Cell Culture. Culturing of human epithelial lung cell line A549 was performed according to the protocol provided by the American Type Culture Collection. A549 was grown in F-12K supplemented with 10% v/v FBS and 1% v/v Penicillin/streptomycin at 37° C. in a humidified air atmosphere containing 5% CO2.
as §2, with “Cytotoxicity Assay” for “Assessment of cytotoxicity”, “A549” for “A549-luc-C8”, “samples” for “TAT, dTAT or PEI”

A549 cells [3] = experiment: Cytotoxicity assay (MTS), Example 2; details: 46.9 mM CaCl2 only or in the complex
Procedure: (§4) Cytoxicity Assay. Cytotoxicity of the complexes was determined by the CellTiter 96® Aqueous Cell Proliferation Assay kit (MTS assay) from Promega. A549 cells were plated on 96-well plates with approximately 8,000 cells/well and incubated in a humid 5% CO2 incubator at 37° C. After 18-24 hours incubation, the medium was removed and the cells were washed with 100 μl serum free medium. Cells were treated with the samples for 12-24 hours. The serum free medium were then removed and replaced with a mixture of 100 μl fresh culture medium and 20 μl MTS reagent solution. The cells were incubated for 1-4 hours at 37° C. in 5% CO2 incubator. Cell viability was assessed by measuring the absorbance at 490 nm by plate reader (SpectraMax M5) and expressed as the ratio of the A490 of cells treated with inhibitors over the control samples.

[4] = Cytotoxicity Assay (MTS Assay), Example 1 and CPPs; assay type: cell-based, human; details: human
Procedure: as §3
as §2, with “Cytotoxicity Assay” for “Assessment of cytotoxicity”, “A549” for “A549-luc-C8”, “samples” for “TAT, dTAT or PEI”

A549 cells [5] = system: A549 cells
Procedure: as §4

A549 cells [6] = experiment: In vitro cell transfection (pGL3 luciferase gene expression), Example 1 method; assay type: cell-based, human; details: 1 day after transfection, 75, 150, 300 mM CaCl2, varying N/P ratios
Procedure: Particles of nano-sized TAT-Ca complexes were synthesized by rapidly adding and stirring 10 μL of either (0.1 μg/μL) pDNA or (30-50 nM) siRNA to 15 μL (1 μg/μL) of the TAT solution. To this solution, 15 μL of CaCl2 of known molarity (e.g. 0.3 M) was added and mixed by vigorous pipetting followed by 20-30 minutes incubation at room temperature or at 4° C. prior to use.
Preparation of PEI/pDNA Complexes. Polyethylenimine-DNA Complexes were prepared by adding 10 μl (0.1 μg/μL) of pDNA solution to 15 μL (N/P ratio of 5 or 10) polyethylenimine (PEI) solution drop-wise while stirring. Complexes were incubated at room temperature for 20-30 minutes before dilution 1.7 times (15 μL) with the appropriate buffer (e.g. nuclease-free water or CaCl2). Complexes were freshly prepared before each individual experiment.
In Vitro Cell Transfection Studies. A549 cells were trypsinized, counted and diluted to a concentration of approximately 80,000 cells/mL. Then 0.1 mL of that dilution was added to each well of a 96-well plate and the cells were incubated in a humidified atmosphere of 5% CO2 incubator at 37° C. for 24 hours. Immediately before transfection, the cells were washed once with PBS and 100 μl sample (20% of complex to 80% of serum free cell culture medium) was added to each well. Cells were incubated with the complexes for 5 hours. The transfection agent was then removed by aspiration and 100 μL of fresh serum medium was added followed by further incubation. The Luciferase Assay System from Promega was used to determine gene expression following the manufacturer's recommended protocol. The light units were normalized against protein concentration in the cells extracts, which were measured using the Coomassie Plus™ Protein Assay (Thermo Scientific). The transfection results were expressed as Relative Light Units (RLU) per mg of cellular protein.

Compound: N=C(N)NCCC[C@H](NC(=O)[C@H](CCCCN)NC(=O)[C@H](CCCCN)NC(=O)[C@H](CCCNC(=N)N)NC(=O)[C@H](CCCNC(=N)N)NC(=O)[C@H](Cc1c[nH]cn1)NC(=O)[C@H](CCCNC(=N)N)NC(=O)[C@H](CCCNC(=N)N)NC(=O)[C@H](CCCNC(=N)N)NC(=O)[C@H](CCC(N)=O)NC(=O)[C@H](CCCNC(=N)N)NC(=O)[C@H](CCCNC(=N)N)NC(=O)[C@H](CCCCN)NC(=O)[C@H](CCCCN)NC(=O)[C@@H](N)CCCNC(=N)N)C(=O)O [dTAT] (H-RKKRRQRRRHRRKKR-OH)
- Toxicity/Behavioral Effects (Balb/C mice; dTAT 0.16 mg/mL, total dose 3.90 mg/Kg, siRNA 0.03 nM): Normal
- Toxicity/Behavioral Effects (Balb/C mice; dTAT 0.32 mg/mL, total dose 7.81 mg/Kg, siRNA 0.07 nM): Normal
- Toxicity/Behavioral Effects (Balb/C mice; dTAT 0.64 mg/mL, total dose 15.63 mg/Kg, siRNA 0.14 nM): Normal
- Toxicity/Behavioral Effects (Balb/C mice; dTAT 1.25 mg/mL, total dose 31.25 mg/Kg, siRNA 0.29 nM): Normal
- Toxicity/Behavioral Effects (Balb/C mice; dTAT 2.5 mg/mL, total dose 62.5 mg/Kg, siRNA 0.59 nM): Normal
- Toxicity/Behavioral Effects (Balb/C mice; dTAT 5 mg/mL, total dose 125 mg/Kg, siRNA 1.18 nM): Normal
- Toxicity/Behavioral Effects (Balb/C mice; dTAT 10 mg/mL, total dose 250 mg/Kg, siRNA 2.36 nM): Normal
- Toxicity/Behavioral Effects (Balb/C mice; dTAT 20 mg/mL, total dose 500 mg/Kg, siRNA 4.73 nM): Normal
- IC50 at 24 h [1]: ~4000 µg/mL (≈ 1820 µM)

Compound: N=C(N)NCCC[C@H](NC(=O)[C@H](CCCNC(=N)N)NC(=O)[C@H](CCCNC(=N)N)NC(=O)[C@H](CCC(N)=O)NC(=O)[C@H](CCCNC(=N)N)NC(=O)[C@H](CCCNC(=N)N)NC(=O)[C@H](CCCCN)NC(=O)[C@H](CCCCN)NC(=O)[C@@H](N)CCCNC(=N)N)C(N)=O [TAT]
- cytotoxicity (A549-luc-C8 cells): almost no evidence of cytotoxicity
- cytotoxic effects (A549 cells [2]): no evidence of cytotoxic effects

Compound: [Ca+2].[Cl-].[Cl-] [CaCl2, Calcium chloride]
- cytotoxicity (A549 cells [3]): did not show cytotoxicity

Compound: CSCC[C@H](NC(=O)[C@H](CCCCN)NC(=O)[C@H](Cc1c[nH]c2ccccc12)NC(=O)[C@H](CCCCN)NC(=O)[C@@H](N)CCCCN)C(=O)N[C@@H](CCCNC(=N)N)C(=O)N[C@@H](CCCNC(=N)N)C(=O)N[C@@H](CC(N)=O)C(=O)N[C@@H](CCC(N)=O)C(=O)N[C@@H](Cc1ccccc1)C(=O)N[C@@H](Cc1c[nH]c2ccccc12)C(=O)N[C@H](C(=O)N[C@@H](CCCCN)C(=O)N[C@H](C(=O)N[C@@H](CCC(N)=O)C(=O)N[C@@H](CCCNC(=N)N)C(=O)NCC(=O)O)C(C)C)C(C)C [Alp] (H-KKWKMRRNQFWVKVQRG-OH)
- IC50 at 24 h [4]: ~2140 µg/mL (≈ 942 µM)

Compound: protamine
- IC50 (cytotoxicity) (A549 cells [5]): 890 µg/mL

Compound: H-RKKRRQRRRHRRKKR-NH2 [TAT5]
- added CaCl2 concentration at which complexes showed a higher level of gene expression (A549 cells [6]): 300 mM

Compound: H-RRKRRQHRRR-NH2 [TAT4]
- added CaCl2 concentration at which complexes showed a higher level of gene expression (A549 cells [6]): 150 mM

Compound: H-RKKRRHRRR-NH2 [TAT2]
- added CaCl2 concentration at which complexes showed a higher level of gene expression (A549 cells [6]): 150 mM

Compound: H-RKKRRQHRRR-NH2 [TAT3]
- added CaCl2 concentration at which complexes showed a higher level of gene expression (A549 cells [6]): 150 mM
